Assays:
Assay type in all cases: in vivo
Agrostis tenuis = assay: Herbicidal early post-emergence action (96-well microtiter plates), AGSTE; details: 1900 g/ha, scored 9 to 12 days after treatment, 100% = plants have died, 0% = like untreated control plants
From the text: (§1) In the examples and tables below, the following abbreviations are used: • Undesired Plants/Weeds: • ABUTH: Abutilon theophrasti • AGSTE: Agrostis tenuis • AMARE Amaranthus retroflexus • ECHCG: Echinochloa crus-galli • LOLRI: Lolium rigidum • MATIN: Matricaria inodora • POAAN: Poa annua • SETVI: Setaria viridis • STEME: Stellaria media A. Herbicidal Early Post-Emergence Action Seeds of monocotyledonous and dicotyledonous weed plants were placed in 96-well microtiter plates in quartz sand and grown in a climatized chamber under controlled growth conditions. 5 to 7 days after sowing, the test plants were treated at the cotyledon stage. The compounds according to the invention, formulated in the form of emulsion concentrates (EC), were applied with a water application rate of the equivalent of 2200 liters per hectare. After the test plants had been left to stand in the climatized chamber for 9 to 12 days under optimum growth conditions, the effect of the preparations was scored visually in comparison to untreated controls. Here, for example, 100% activity=the plants have died, 0% activity=like untreated control plants. Tables A1 to A2 below show the effects of selected compounds of the general formula (I) according to Table 1 above on various harmful plants and an application rate corresponding to 1900 g/ha, which were obtained by the experimental procedure mentioned above.

Poa annua [1] = assay: Herbicidal early post-emergence action (96-well microtiter plates), POAAN; details: 1900 g/ha, scored 9 to 12 days after treatment, 100% = plants have died, 0% = like untreated control plants
From the text: as §1

Poa annua [2] = assay: Herbicidal pre-emergence action (greenhouse pots), POAAN; details: 1280 g/ha, visual scoring after about 3 weeks vs untreated controls
From the text: (§2) In the examples and tables below, the following abbreviations are used: • Undesired Plants/Weeds: • ABUTH: Abutilon theophrasti • AGSTE: Agrostis tenuis • AMARE Amaranthus retroflexus • ECHCG: Echinochloa crus-galli • LOLRI: Lolium rigidum • MATIN: Matricaria inodora • POAAN: Poa annua • SETVI: Setaria viridis • STEME: Stellaria media A. Herbicidal Early Post-Emergence Action Seeds of mono- and dicotyledonous weed plants were placed in plastic pots in sandy loam soil (doubly sown with one species each of mono- or dicotyledonous weed plants per pot) and covered with soil. The compounds of the invention, formulated in the form of wettable powders (WP) or as emulsion concentrates (EC), were then applied onto the surface of the covering soil as aqueous suspension or emulsion with addition of 0.5% additive at a water application rate of 600 liters per hectare (converted). After the treatment, the pots were placed in a greenhouse and kept under good growth conditions for the test plants. After about 3 weeks, the effect of the preparations was scored visually in comparison with untreated controls as percentages. For example, 100% activity=the plants have died, 0% activity=like untreated control plants. Tables C1-C8 below show the effects of selected compounds of the general formula (I) according to Table 1 above on various harmful plants and an application rate corresponding to 1280 g/ha, which were obtained by the experimental procedure mentioned above.

Amaranthus retroflexus [3] = assay: Herbicidal post-emergence action (greenhouse pots), AMARE; details: 1280 g/ha, visual rating about 3 weeks after treatment vs untreated controls
From the text: In the examples and tables below, the following abbreviations are used: • Undesired Plants/Weeds: • ABUTH: Abutilon theophrasti • AGSTE: Agrostis tenuis • AMARE Amaranthus retroflexus • ECHCG: Echinochloa crus-galli • LOLRI: Lolium rigidum • MATIN: Matricaria inodora • POAAN: Poa annua • SETVI: Setaria viridis • STEME: Stellaria media A. Herbicidal Early Post-Emergence Action Seeds of mono- and dicotyledonous weed plants were placed in plastic pots in sandy loam soil (doubly sown with in each case one species of mono- or dicotyledonous weed plants per pot), covered with soil and cultivated in a greenhouse under controlled growth conditions. 2 to 3 weeks after sowing, the test plants were treated at the one-leaf stage. The compounds of the invention, formulated in the form of wettable powders (WP) or as emulsion concentrates (EC), were applied onto the green parts of the plants as aqueous suspension or emulsion with addition of 0.5% additive at a water application rate of 600 liters per hectare (converted). After the test plants had been kept in the greenhouse under optimum growth conditions for about 3 weeks, the activity of the preparations was rated visually in comparison to untreated controls. For example, 100% activity=the plants have died, 0% activity=like untreated control plants. Tables B1-B8 below show the effects of selected compounds of the general formula (I) according to Table 1 above on various harmful plants and an application rate corresponding to 1280 g/ha, which were obtained by the experimental procedure mentioned above.

Setaria viridis = assay: Herbicidal pre-emergence action (greenhouse pots), SETVI; details: 1280 g/ha, visual scoring after about 3 weeks vs untreated controls
From the text: as §2

Stellaria media = assay: Herbicidal pre-emergence action (greenhouse pots), STEME; details: 1280 g/ha, visual scoring after about 3 weeks vs untreated controls
From the text: as §2

Amaranthus retroflexus [4] = assay: Herbicidal pre-emergence action (greenhouse pots), AMARE; details: 1280 g/ha, visual scoring after about 3 weeks vs untreated controls
From the text: as §2

Structure (SMILES)	AGSTE (herbicidal activity, scored visually in comparison to untreated controls) (Agrostis tenuis) [%]	POAAN (herbicidal activity, scored visually in comparison to untreated controls) (Poa annua [1]) [%]	herbicidal activity POAAN (Poa annua [2]) [%]	herbicidal activity AMARE (Amaranthus retroflexus [3]) [%]	herbicidal activity SETVI (Setaria viridis) [%]	herbicidal activity STEME (Stellaria media) [%]	herbicidal activity AMARE (Amaranthus retroflexus [4]) [%]
Fc1ccc(Oc2c(F)cccc2Nc2ccc(Cl)cn2)cc1 [Example 1-40]	80	80					
Fc1ccc(Oc2c(Cl)cccc2Nc2ccc(Cl)cn2)cc1 [Example 1-75]	100	80					
Cc1cccc(Nc2ccc(Cl)cn2)c1Oc1ccc(F)cc1 [Example 1-79]	80	100	100				
N#Cc1cccc(Nc2ccc(Cl)cn2)c1Oc1ccc(F)cc1 [Example 1-124]	100	100		100			
N#Cc1cccc(Nc2ccc(Cl)cn2)c1Oc1ccc(F)c(F)c1 [Example 1-129]	100			100	90	90	
N#Cc1cccc(Nc2ccc(Br)cn2)c1Oc1ccc(F)cc1 [Example 1-143]	80						
N#Cc1cccc(Nc2ccc(Br)cn2)c1Oc1ccc(F)c(F)c1 [Example 1-144]	100	100					
N#Cc1ccc(Nc2cccc(C#N)c2Oc2ccc(F)cc2)nc1 [Example 1-145]		80					90
N#Cc1ccc(Nc2cccc(C#N)c2Oc2ccc(F)c(F)c2)nc1 [Example 1-146]	80						
Cc1ccc(Nc2cccc(C#N)c2Oc2ccc(F)cc2)nc1 [Example 1-149]	100			100			100
N#Cc1cccc(Nc2ncccn2)c1Oc1ccccc1F [Example 1-246, 2-(2-Fluorophenoxy)-3-(pyrimidin-2-ylamino)benzonitrile]	80			100	100	100	100
N#Cc1cccc(Nc2ncccn2)c1Oc1cc(F)ccc1F [Example 1-252]							90
N#Cc1cccc(Nc2ncccn2)c1Oc1cc(F)cc(F)c1 [Example 1-254]			90	100	100		100
N#Cc1cccc(Nc2ncc(F)cn2)c1Oc1ccccc1F [Example 1-265]	80		100	100	90	100	100
N#Cc1cccc(Nc2ncc(F)cn2)c1Oc1cc(F)ccc1F [Example 1-271]	80	80	90	100	90		100
N#Cc1cccc(Nc2ncc(F)cn2)c1Oc1cc(F)cc(F)c1 [Example 1-273]	80			100	90		100

Structure (SMILES)	AGSTE (herbicidal activity, scored visually in comparison to untreated controls) (Agrostis tenuis) [%]	POAAN (herbicidal activity, scored visually in comparison to untreated controls) (Poa annua [1]) [%]	herbicidal activity POAAN (Poa annua [2]) [%]	herbicidal activity AMARE (Amaranthus retroflexus [3]) [%]	herbicidal activity SETVI (Setaria viridis) [%]	herbicidal activity STEME (Stellaria media) [%]	herbicidal activity AMARE (Amaranthus retroflexus [4]) [%]
COc1cccc(Oc2c(C#N)cccc2Nc2ncc(F)cn2)c1 [Example 1-281]	100						
N#Cc1cccc(Nc2ncc(Cl)cn2)c1Oc1ccccc1F [Example 1-284]	100	100		100	100	90	100
N#Cc1cccc(Nc2ncc(Cl)cn2)c1Oc1cccc(Cl)c1 [Example 1-287]	80		100	100	100		100
N#Cc1cccc(Nc2ncc(Cl)cn2)c1Oc1cc(F)ccc1F [Example 1-290]	80		90	100			90
N#Cc1cccc(Nc2ncc(Cl)cn2)c1Oc1cc(F)cc(F)c1 [Example 1-292]	100	80		100	90		100
N#Cc1cccc(Nc2ncc(Cl)cn2)c1Oc1cccc(C(F)(F)F)c1 [Example 1-297]	100	80		100	100		
COc1cccc(Nc2ncc(Cl)cn2)c1Oc1ccc(F)cc1 [Example 1-324]	100	80					
CSc1cccc(Nc2ncc(Cl)cn2)c1Oc1ccc(F)cc1 [Example 1-328]	80	80					
Clc1ccc(Oc2c(Cl)cccc2Nc2ncc(Cl)cn2)cc1 [Example 1-341]	100	100		100		90	
CC(C)Oc1ccc(Nc2cccc(C#N)c2Oc2ccc(F)cc2)nc1 [Example 1-342]				100	100		100
Fc1ccc(Oc2c(Br)cccc2Nc2ncc(Cl)cn2)cc1 [Example 1-358]	100	100					
CNc1cccc(Nc2ncc(Cl)cn2)c1Oc1ccc(F)cc1 [Example 1-365]	100						
CN(C)c1cccc(Nc2ncc(Cl)cn2)c1Oc1ccc(F)cc1 [Example 1-366]	100	80					
CCSc1cccc(Nc2ncc(Cl)cn2)c1Oc1ccc(F)cc1 [Example 1-376]	80	80					
Nc1c([N+](=O)[O-])cc(Nc2ncc(Cl)cn2)c(Oc2ccc(F)cc2)c1Cl [Example 2-101, 2-Chloro-4-(5-chloropyrimidin-2-ylamino)-3-(4-fluorophenoxy)-6-nitroaniline]	100	80					

Source: patent US12415786B2, “Substituted 2-heteroarylaminobenzenes and the salts thereof and their use as herbicidal agents” (Bayer Aktiengesellschaft, priority 2019, dated 2025)
